Assay results as given in the NIST ThermoML archive (doi:10.1021/je049572f).

Experiment: xn = mol fraction of the nth substance listed
Conditions: 101.33 kPa, Liquid

O=S1(=O)CCCC1 [sulfolane] + CCc1ccccc1
Conditions	mass density [kg/m3]	viscosity [mPa·s]
303.15 K, x2 = 0	1260.8	10.07
303.15 K, x2 = 0.1118	1209.27	6.224
303.15 K, x2 = 0.2205	1160.4	4.155
303.15 K, x2 = 0.3267	1114.66	2.942
303.15 K, x2 = 0.4301	1071.65	2.185
303.15 K, x2 = 0.5309	1031.19	–
303.15 K, x2 = 0.6293	993.33	1.324
303.15 K, x2 = 0.7254	957.17	1.057
303.15 K, x2 = 0.8194	923.09	0.861
303.15 K, x2 = 0.9106	890.45	0.716
313.15 K, x2 = 0	1251.9	7.808
313.15 K, x2 = 0.1118	1200.44	4.943
313.15 K, x2 = 0.2205	1151.53	3.385
313.15 K, x2 = 0.3267	1105.77	2.452
313.15 K, x2 = 0.4301	1062.77	1.835
313.15 K, x2 = 0.5309	1022.32	–
313.15 K, x2 = 0.6293	984.45	1.135
313.15 K, x2 = 0.7254	948.31	0.924
313.15 K, x2 = 0.8194	914.23	0.757
313.15 K, x2 = 0.9106	881.6	0.632
323.15 K, x2 = 0	1243.36	6.194
323.15 K, x2 = 0.1118	1191.64	4.007
323.15 K, x2 = 0.2205	1142.7	2.801
323.15 K, x2 = 0.3267	1096.92	2.048
323.15 K, x2 = 0.4301	1053.9	1.561
323.15 K, x2 = 0.5309	1013.47	1.136
323.15 K, x2 = 0.6293	975.58	0.993
323.15 K, x2 = 0.7254	939.43	0.813
323.15 K, x2 = 0.8194	905.36	0.66
323.15 K, x2 = 0.9106	872.72	0.564
333.15 K, x2 = 0	1234.62	5.009
333.15 K, x2 = 0.1118	1182.85	3.33
333.15 K, x2 = 0.2205	1133.86	2.35
333.15 K, x2 = 0.3267	1088.06	1.763
333.15 K, x2 = 0.4301	1045.02	1.347
333.15 K, x2 = 0.5309	1004.57	–
333.15 K, x2 = 0.6293	966.66	0.876
333.15 K, x2 = 0.7254	930.5	0.724
333.15 K, x2 = 0.8194	896.41	0.597
333.15 K, x2 = 0.9106	863.76	0.505
343.15 K, x2 = 0	1225.92	4.126
343.15 K, x2 = 0.1118	1173.93	2.796
343.15 K, x2 = 0.2205	1124.89	2.005
343.15 K, x2 = 0.3267	1079.06	1.541
343.15 K, x2 = 0.4301	1036.02	1.177
343.15 K, x2 = 0.5309	995.54	0.882
343.15 K, x2 = 0.6293	957.62	0.772
343.15 K, x2 = 0.7254	921.43	0.646
343.15 K, x2 = 0.8194	887.32	0.536
343.15 K, x2 = 0.9106	854.67	0.459
353.15 K, x2 = 0	1216.8	3.44
353.15 K, x2 = 0.1118	1165.14	2.371
353.15 K, x2 = 0.2205	1116.08	1.736
353.15 K, x2 = 0.3267	1070.18	1.319
353.15 K, x2 = 0.4301	1027.1	1.039
353.15 K, x2 = 0.5309	986.58	0.785
353.15 K, x2 = 0.6293	948.63	0.692
353.15 K, x2 = 0.7254	912.4	0.583
353.15 K, x2 = 0.8194	878.28	0.484
353.15 K, x2 = 0.9106	845.58	0.417

CCc1ccccc1 [ethylbenzene] + CN1CCCC1=O
Conditions	mass density [kg/m3]	viscosity [mPa·s]
303.15 K, x1 = 0.094	1006.25	1.415
303.15 K, x1 = 0.1901	989.43	1.301
303.15 K, x1 = 0.2859	972.61	1.188
303.15 K, x1 = 0.3839	955.98	1.081
303.15 K, x1 = 0.4839	939.38	0.975
303.15 K, x1 = 0.5835	923.22	0.884
303.15 K, x1 = 0.6854	906.91	0.796
303.15 K, x1 = 0.7888	890.73	0.722
303.15 K, x1 = 0.8937	874.71	0.66
303.15 K, x1 = 1	859.95	0.598
313.15 K, x1 = 0.094	997.35	1.216
313.15 K, x1 = 0.1901	980.53	1.124
313.15 K, x1 = 0.2859	963.71	1.033
313.15 K, x1 = 0.3839	947.11	0.94
313.15 K, x1 = 0.4839	930.52	0.846
313.15 K, x1 = 0.5835	914.35	0.772
313.15 K, x1 = 0.6854	898.04	0.705
313.15 K, x1 = 0.7888	881.86	0.643
313.15 K, x1 = 0.8937	865.85	0.588
313.15 K, x1 = 1	851.14	0.537
323.15 K, x1 = 0.094	988.46	1.057
323.15 K, x1 = 0.1901	971.63	0.982
323.15 K, x1 = 0.2859	954.81	0.904
323.15 K, x1 = 0.3839	938.2	0.829
323.15 K, x1 = 0.4839	921.64	0.75
323.15 K, x1 = 0.5835	905.4	0.688
323.15 K, x1 = 0.6854	889.1	0.629
323.15 K, x1 = 0.7888	873	0.576
323.15 K, x1 = 0.8937	856.9	0.525
323.15 K, x1 = 1	842.3	0.483
333.15 K, x1 = 0.094	979.51	0.932
333.15 K, x1 = 0.1901	962.67	0.868
333.15 K, x1 = 0.2859	945.85	0.801
333.15 K, x1 = 0.3839	929.24	0.735
333.15 K, x1 = 0.4839	912.7	0.671
333.15 K, x1 = 0.5835	896.46	0.618
333.15 K, x1 = 0.6854	880.17	0.565
333.15 K, x1 = 0.7888	864	0.52
333.15 K, x1 = 0.8937	847.93	0.474
333.15 K, x1 = 1	833.34	0.437
343.15 K, x1 = 0.094	970.56	0.833
343.15 K, x1 = 0.1901	953.71	0.774
343.15 K, x1 = 0.2859	936.87	0.714
343.15 K, x1 = 0.3839	920.25	0.658
343.15 K, x1 = 0.4839	903.71	0.603
343.15 K, x1 = 0.5835	887.45	0.559
343.15 K, x1 = 0.6854	871.13	0.514
343.15 K, x1 = 0.7888	854.97	0.472
343.15 K, x1 = 0.8937	838.91	0.43
343.15 K, x1 = 1	824.26	0.397
353.15 K, x1 = 0.094	961.56	0.746
353.15 K, x1 = 0.1901	944.7	0.695
353.15 K, x1 = 0.2859	927.86	0.643
353.15 K, x1 = 0.3839	911.2	0.596
353.15 K, x1 = 0.4839	894.64	0.547
353.15 K, x1 = 0.5835	878.35	0.505
353.15 K, x1 = 0.6854	862.01	0.468
353.15 K, x1 = 0.7888	845.86	0.43
353.15 K, x1 = 0.8937	829.76	0.391
353.15 K, x1 = 1	815.18	0.366
